Patent US20110015191A1, “ORGANIC COMPOUNDS” (SANDOZ AG, priority 2007, published 2011)
≈ marks a conversion by molar mass, not a printed value.

Legend:
[1] = heated to 230° C. under a nitrogen atmosphere; cited from earlier work
[2] = cited from earlier work
[3] = Conversion of the methanol solvate on drying; assay type: physicochemical
Excerpt: In another embodiment the invention relates to a novel methanol solvate of Aprepitant. The methanol solvate is useful for the purification of Aprepitant.

SMILES	conversion of polymorphic form on heating [1]	solubility in a methanol/water mixture (2:1) [2]	conversion of solid form on drying [3]
C[C@@H](O[C@H]1OCCN(Cc2nc(=O)[nH][nH]2)[C@H]1c1ccc(F)cc1)c1cc(C(F)(F)F)cc(C(F)(F)F)c1 [Form II of Aprepitant, 2-(R)-(1-(R)-(3,5)-bis(trifluoromethyl)-phenyl)ethoxy)-3-(S)-(4-fluoro)phenyl-4-(3-(5-oxo-1H,4H-1,2,4-triazolo)methylmorpholine]	converts to form I	about 1.3±0.2 mg/ml	
C[C@@H](O[C@H]1OCCN(Cc2nc(=O)[nH][nH]2)[C@H]1c1ccc(F)cc1)c1cc(C(F)(F)F)cc(C(F)(F)F)c1 [form I, 2-(R)-(1-(R)-(3,5)-bis(trifluoromethyl)-phenyl)ethoxy)-3-(S)-(4-fluoro)phenyl-4-(3-(5-oxo-1H,4H-1,2,4-triazolo)methylmorpholine]		900 ± 100 µg/mL (≈ 1680 µM)	
CO.C[C@@H](O[C@H]1OCCN(Cc2nc(=O)[nH][nH]2)[C@H]1c1ccc(F)cc1)c1cc(C(F)(F)F)cc(C(F)(F)F)c1 [methanol solvate, Methanol solvate of 2-(R)-(1-(R)-(3,5)-bis(trifluoromethyl)-phenyl)ethoxy)-3-(S)-(4-fluoro)phenyl-4-(3-(5-oxo-1H,4H-1,2,4-triazolo)methylmorpholine]			converts to form I of Aprepitant on drying
